Patent publication US11351163B2, “Compositions and methods of treating cancer” (BRISTOL-MYERS SQUIBB COMPANY, priority 2017, dated 2022)

How the values were obtained:
[1] = Clinical trial of Example 2: safety and tolerability (DLTs, TRAEs), dose escalation and expansion; type: in vivo
Source text: Purpose: The purpose of the study is to, among other things, determine safety and effectiveness of a compound of Formula I (or salt thereof) when combined with nivolumab and in combination with both nivolumab and ipilimumab in patients with cancers that are advanced or have spread. Pharmacokinetics and pharmacodynamics (including immunomodulatory assays) of a compound of Formula I when combined with nivolumab and in combination with nivolumab and ipilimumab in this patient population will also be assessed.
Primary Outcome Measures: • Safety and tolerability of a compound of Formula I as measured by a composite of the incidence of adverse events (AEs), serious adverse events (SAEs), AEs leading to discontinuation, deaths, and clinical laboratory test abnormalities. The time frame is 100 days after the last dose of study therapy. • Safety of a compound of Formula I plus nivolumab as measured by a composite of the incidence of adverse events (AEs), serious adverse events (SAEs), AEs leading to discontinuation, deaths, and clinical laboratory test abnormalities. The time frame is 100 days after the last dose of study therapy. • Safety of a compound of Formula I plus both nivolumab and ipilimumab as measured by incidence of adverse events (AEs), serious adverse events (SAEs), AEs leading to discontinuation, deaths, and clinical laboratory test abnormalities. The time frame is 100 days after the last dose of study therapy. • Anti-tumor activity of a compound of Formula I administered in combination with nivolumab as measured by the best overall response (BOR) as measured by CT scan. The time frame is approximately 3 years. • Anti-tumor activity of a compound of Formula I administered in combination with nivolumab as measured by the duration of response (DOR) as measured by CT scan. The time frame is approximately 3 years. • Anti-tumor activity of a compound of Formula I administered in combination with nivolumab as measured by progression-free survival rates (PFSRs) as measured by CT scan. The time frame is approximately 3 years. • Anti-tumor activity of a compound of Formula I administered in combination with both nivolumab and ipilimumab as measured by the best overall response (BOR) as measured by CT scan. The time frame is approximately 3 years. • Anti-tumor activity of a compound of Formula I administered in combination with both nivolumab and ipilimumab as measured by the duration of response (DOR) as measured by CT scan. The time frame is approximately 3 years. • Anti-tumor activity of a compound of Formula I administered in combination with both nivolumab and ipilimumab as measured by progression-free survival rates (PFSRs) as measured by CT scan. The time frame is approximately 3 years.
1. Combination Therapy (Dose Escalation). Participants with advanced cancers received a compound of Formula I orally (PO), daily (QD) at a dose of 25 mg, 50 mg, 100 mg or 200 mg for all advanced cancers over a 2 week lead-in period. Participants were then also administered nivolumab intravenously at a dose of 240 mg once every two weeks.
2. Combination Therapy (Dose Expansion). A total of 219 participants with select previously treated advanced malignancies received a compound of Formula I at a dose of 100 or 200 mg orally once daily plus nivolumab at a dose of 240 mg intravenously once every two weeks (Q2W) or at a dose of 480 mg intravenously once every four weeks (Q4W). Advanced malignancies included cervical cancer (21 patients), diffuse large B-cell lymphoma (DLBCL) (4 patients), non-small cell lung cancer (NSCLC) (7 patients), renal cell carcinoma (RCC) (0 patients); squamous cell carcinoma of the head and neck (SCCHN) (16 patients), bladder cancer (18 patients), pancreatic cancer (18 patients), melanoma (21 patients), and ASST, a mixed tumor type cohort consisting of sarcoma, endometrial and breast cancer (19 patients). […]

[2] = Clinical trial of Example 10: safety (TRAEs) and end of treatment disposition; type: in vivo
Source text: Primary Outcome Measures: • Safety and tolerability of a compound of Formula I as measured by a composite of the incidence of adverse events (AEs), serious adverse events (SAEs), AEs leading to discontinuation, deaths, and clinical laboratory test abnormalities. The time frame is 100 days after the last dose of study therapy. • Safety of a compound of Formula I plus nivolumab as measured by a composite of the incidence of adverse events (AEs), serious adverse events (SAEs), AEs leading to discontinuation, deaths, and clinical laboratory test abnormalities. […] The time frame is approximately 3 years. • Anti-tumor activity of a compound of Formula I administered in combination with nivolumab as measured by the duration of response (DOR) as measured by CT scan. The time frame is approximately 3 years. • Anti-tumor activity of a compound of Formula I administered in combination with nivolumab as measured by progression-free survival rates (PFSRs) as measured by CT scan. The time frame is approximately 3 years.
1. Combination Therapy (Dose Escalation).
2. Combination Therapy (Dose Expansion). […] Three patients received the compound of Formula I alone. IDO1 inhibitor therapy is not permitted. Prior exposure to immune checkpoint inhibitors or therapy targeting T-cell costimulation requires a washout period of >4 weeks.

kynurenine = assay: Kynurenine in paired tumor samples and serum of patients (FIG. 1A, 1B); type: in vivo, human
Procedure: FIG. 1A illustrates intratumoral kynurenine concentrations at 100 mg, 200 mg or 400 mg of the compound of Formula (I).
FIG. 1B illustrates percent serum kynurenine reduction at 20 mg, 50 mg, 100 mg, 200 mg or 400 mg of the compound of Formula (I).
Dark bars represent a pretreatment kynurenine condition and light bars represent an on-treatment kynurenine (C1D15) condition. Asterisks (*) denotes samples below the lower limit of quantitation.

[3] = patients with advanced bladder cancer

C[C@@H](C(=O)Nc1ccc(Cl)cc1)[C@H]1CC[C@@H](c2ccnc3ccc(F)cc32)CC1 [compound of Formula I, (R)-N-(4-chlorophenyl)-2-(cis-4-(6-fluoroquinolin-4-yl)cyclohexyl)propanamide]
# of DLTs/# DLT evaluable ([1]; 25 mg, dose escalation): 0/7
# of DLTs/# DLT evaluable ([1]; 50 mg, dose escalation): 0/8
# of DLTs/# DLT evaluable ([1]; 100 mg, dose escalation): 1/9
# of DLTs/# DLT evaluable ([1]; 200 mg, dose escalation): 3/12
# of DLTs/# DLT evaluable ([1]; 400 mg, dose escalation): 2/4
DLTs ([1]; 400 mg, dose escalation): grade 3 AST/ALT; grade 2 anemia, fatigue
Maximum tolerated dose ([1]; during escalation): 200 mg
tolerability of 100 mg ([2]; 100 mg vs the 200-mg dose, with nivolumab): improved tolerability vs the 200-mg dose
tolerability [2, 3]: well tolerated
treatment-related deaths [2, 3]: No treatment-related deaths occurred
reduction in serum kynurenine levels (kynurenine; 100 mg once daily, FIG. 1B): ~60%
intratumoral kynurenine (kynurenine; 39 paired pre- vs on-treatment (C1D15) tumor samples across various tumor types, FIG. 1A): reduced across all doses
